#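 Assay format: 96-well plates, 48-hour exposure. TGI denotes the concentration required for complete inhibition of growth.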
# Assays:
# Assay in all cases: NCI anticancer screen, dose series, 48 h
# [1] = tested on: HCT-15 colon
# [2] = tested on: MALME-3M melanoma
# [3] = tested on: CCRF-CEM leukemia
# [4] = tested on: HCC-2998 colon
# [5] = tested on: MDA-MB-231 breast
# [6] = tested on: K-562 leukemia
# [7] = tested on: SN12C renal
# [8] = tested on: SW-620 colon
# [9] = tested on: HOP-92 NSCLC
# [10] = tested on: SR leukemia
# [11] = tested on: EKVX NSCLC
# [12] = tested on: MDA-N
# [13] = tested on: T-47D breast
# [14] = tested on: SK-MEL-28 melanoma
# [15] = tested on: SNB-19 CNS
# [16] = tested on: A549 NSCLC
# [17] = tested on: HOP-62 NSCLC
# [18] = tested on: NCI/ADR-RES ovarian
# [19] = tested on: MDA-MB-435
# [20] = tested on: KM12 colon
# [21] = tested on: SNB-75 CNS
# [22] = tested on: HS 578T breast
# [23] = tested on: NCI-H460 lung
# [24] = tested on: U251 CNS
# [25] = tested on: UO-31 renal
# [26] = tested on: OVCAR-8 ovarian
# [27] = tested on: HCT-116 colon
# [28] = tested on: UACC-257 melanoma
# [29] = tested on: SK-OV-3 ovarian
# [30] = tested on: A498 renal
# [31] = tested on: SF-268 CNS
# [32] = tested on: PC-3 prostate
# [33] = tested on: UACC-62 melanoma
# [34] = tested on: IGROV1 ovarian
# [35] = tested on: HT29 colon
# [36] = tested on: OVCAR-5 ovarian
# [37] = tested on: RPMI-8226 leukemia
# [38] = tested on: MCF7 breast
# [39] = tested on: 786-0 renal
# [40] = tested on: NCI-H23 lung
# [41] = tested on: SK-MEL-2 melanoma
# [42] = tested on: NCI-H226 lung
# [43] = tested on: COLO 205 colon
# [44] = tested on: SF-295 CNS
# [45] = tested on: SK-MEL-5 melanoma
# [46] = tested on: ACHN renal
# [47] = tested on: OVCAR-4 ovarian
# [48] = tested on: MOLT-4 leukemia
# [49] = tested on: TK-10 renal
# [50] = tested on: NCI-H522 lung
# [51] = tested on: BT-549 breast
# [52] = tested on: M14 melanoma
# [53] = tested on: HL-60(TB) leukemia
# [54] = tested on: OVCAR-3 ovarian
# [55] = tested on: DU-145 prostate
# [56] = tested on: SF-539 CNS
# [57] = tested on: LOX IMVI melanoma
# [58] = tested on: RXF 393 renal
# [59] = tested on: CAKI-1 renal
smiles,measurement,setting,value
C=CCN(C(C)=O)c1cc(OCc2ccccc2)c2c(c1)c(C)cn2S(=O)(=O)c1ccccc1,TGI,[1],> 100 µM
same,TGI,[2],34.2 µM
same,TGI,[3],> 27.1 µM
same,TGI,[4],> 100 µM
same,TGI,[5],> 70.8 µM
same,TGI,[6],> 54.8 µM
same,TGI,[7],> 100 µM
same,TGI,[8],> 100 µM
same,TGI,[9],> 100 µM
same,TGI,[10],4.21 µM
same,TGI,[11],> 50.3 µM
same,TGI,[12],> 74.7 µM
same,TGI,[13],> 35 µM
same,TGI,[14],> 100 µM
same,TGI,[15],> 100 µM
same,TGI,[16],> 100 µM
same,TGI,[17],> 100 µM
same,TGI,[18],> 100 µM
same,TGI,[19],> 46.3 µM
same,TGI,[20],> 100 µM
same,TGI,[21],> 100 µM
same,TGI,[22],> 70.4 µM
same,TGI,[23],> 100 µM
same,TGI,[24],> 100 µM
same,TGI,[25],> 100 µM
same,TGI,[26],> 100 µM
same,TGI,[27],> 100 µM
same,TGI,[28],> 100 µM
same,TGI,[29],> 100 µM
same,TGI,[30],26.3 µM
same,TGI,[31],> 100 µM
same,TGI,[32],> 78.4 µM
same,TGI,[33],> 76.9 µM
same,TGI,[34],> 100 µM
same,TGI,[35],> 100 µM
same,TGI,[36],> 100 µM
same,TGI,[37],> 28.5 µM
same,TGI,[38],31 µM
same,TGI,[39],> 100 µM
same,TGI,[40],> 100 µM
same,TGI,[41],12.3 µM
same,TGI,[42],> 31.1 µM
same,TGI,[43],12.6 µM
same,TGI,[44],> 100 µM
same,TGI,[45],21.5 µM
same,TGI,[46],51.4 µM
same,TGI,[47],> 100 µM
same,TGI,[48],> 22 µM
same,TGI,[49],> 100 µM
same,TGI,[50],> 55.3 µM
same,TGI,[51],> 100 µM
same,TGI,[52],> 100 µM
same,TGI,[53],> 100 µM
same,TGI,[54],> 27.7 µM
same,TGI,[55],> 100 µM
same,TGI,[56],> 100 µM
same,TGI,[57],50.1 µM
same,TGI,[58],> 100 µM
same,TGI,[59],> 54.7 µM
CC(C)=CC(=O)c1[nH]c2ccccc2c1CC(=O)NCCc1cnc[nH]1,TGI,[1],> 100 µM
same,TGI,[2],> 100 µM
same,TGI,[3],> 100 µM
same,TGI,[4],> 100 µM
same,TGI,[5],> 100 µM
same,TGI,[6],> 100 µM
same,TGI,[7],> 100 µM
same,TGI,[8],> 100 µM
same,TGI,[9],> 100 µM
same,TGI,[10],> 100 µM
same,TGI,[11],> 100 µM
same,TGI,[12],> 100 µM
same,TGI,[13],> 100 µM
same,TGI,[14],> 100 µM
same,TGI,[15],> 100 µM
same,TGI,[16],> 100 µM
same,TGI,[18],> 100 µM
same,TGI,[19],> 100 µM
same,TGI,[20],> 100 µM
same,TGI,[21],> 100 µM
same,TGI,[22],> 100 µM
same,TGI,[23],> 100 µM
same,TGI,[24],> 100 µM
same,TGI,[25],> 100 µM
same,TGI,[26],> 100 µM
same,TGI,[27],> 100 µM
same,TGI,[28],> 100 µM
same,TGI,[29],> 100 µM
same,TGI,[30],> 100 µM
same,TGI,[31],> 100 µM
same,TGI,[32],> 100 µM
same,TGI,[33],> 100 µM
same,TGI,[34],> 100 µM
same,TGI,[35],> 100 µM
same,TGI,[36],> 100 µM
same,TGI,[38],> 100 µM
same,TGI,[39],> 100 µM
same,TGI,[40],> 100 µM
same,TGI,[41],> 100 µM
same,TGI,[42],> 100 µM
same,TGI,[43],> 100 µM
same,TGI,[44],> 100 µM
same,TGI,[45],> 100 µM
same,TGI,[46],> 100 µM
same,TGI,[47],> 100 µM
same,TGI,[48],> 100 µM
same,TGI,[49],> 100 µM
same,TGI,[50],> 100 µM
same,TGI,[51],> 100 µM
same,TGI,[52],> 100 µM
same,TGI,[53],> 100 µM
same,TGI,[54],> 100 µM
same,TGI,[55],> 100 µM
same,TGI,[56],> 100 µM
same,TGI,[57],> 100 µM
same,TGI,[58],> 100 µM
same,TGI,[59],> 100 µM

# Reference: PubChem BioAssay (NCI)
